According to patent publication US20190192517A1, “TREATMENT OF SQUAMOUS CELL CARCINOMAS WITH INHIBITORS OF ERK” (Kura Oncology, Inc., priority 2016, published 2019):
One block for each molecule: values may come before it.

Legend:
A375 LacZ = assay: Models of clinical B-Raf and MEK inhibitor resistance, CellTiter-Glo 72 hours: A375 LacZ; format: cell-based; conditions: Homo sapiens, A-375
Protocol: (§1) Example 11: Efficacy studies in models of clinical B-Raf and MEK inhibitor resistance. Human melanoma cell lines were obtained from ATCC or DSMZ (e.g., A375, MM383 BRAF V600E and MM127 NRAS Q61R). A375 cells were engineered to overexpress LacZ, BRAF V600E (BRAF V600E amp), or the NRAS mutant NRAS Q61R. The cell lines were grown to confluency, washed with Tumor Cell Media (DMEM+10% FBS or IMDM+20% FBS), and plated in 90 μL Tumor Cell Media at 5,000-10,000 cells/well. […] Plates were incubated for 72 hours at 37° C. and 5% CO2. A volume of 100 μL of CellTiter-Glo® reagent was added to each well and plates were mixed for 2 minutes on an orbital shaker. The plates were allowed to stand at room temperature for 20 minutes before measuring the luminescent signal of each well.

A375 NRAS Q61R = assay: Models of clinical B-Raf and MEK inhibitor resistance, CellTiter-Glo 72 hours: A375 NRAS Q61R; format: cell-based; conditions: Homo sapiens, A-375
Protocol: as §1

[1] = test system: A375 V600E amp (BRAF V600E amp); assay: Models of clinical B-Raf and MEK inhibitor resistance, CellTiter-Glo 72 hours: A375 V600E amp; format: cell-based; conditions: Homo sapiens, A-375
Protocol: as §1, with “Human” for “Example 11: Efficacy studies in models of clinical B-Raf and MEK inhibitor resistance. Human”

[2] = test system: HN3067 primary human HNSCC tissues; assay: Patient-derived xenograft model of HNSCC: HN3067; format: in vivo, human (in BALB/C nude mice)
Source text: Example 6: Efficacy studies in patient-derived xenograft models of HNSCC. The general procedure outline in Example 1 was followed. […] Dosing was discontinued to observe tumor regrowth.

[3] = test system: HN1391 primary human HNSCC tissues; assay: Patient-derived xenograft model of HNSCC: HN1391; format: in vivo, human (in BALB/C nude mice)
Protocol: Example 5: Efficacy studies in patient-derived xenograft modes of HNSCC. The general procedure outline in Example 1 was followed. […] Dosing was discontinued to observe tumor regrowth, then restarted on the same dosing schedule on day 56. […] This activity was maintained for 25 days on treatment at either 120 mg/kg Q2D or 300 mg/kg QW. When dosing was discontinued, tumor stasis was maintained for 10-20 days, but eventually all of the tumors regrew. Regrowth was allowed to proceed for 2-3 weeks, until some individual tumors exceeded 1600 mm^3, then therapy was restarted. Strikingly, all of the retreated tumors regressed, decreasing in size by 27-66% in the subsequent 35 days.

[4] = test system: ES0191 primary human ESCC tissues; assay: Patient-derived xenograft model of ESCC: ES0191; format: in vivo, human (in BALB/C nude mice); conditions: weekly schedule
Protocol: (§2) Example 2: Efficacy studies in patient-derived xenograft models of ESCC. The general procedure outline in Example 1 was followed. […] Gene copy number and gene expression were assessed as described in Example 1.

[5] = test system: HN2221 primary human HNSCC tissues; assay: Patient-derived xenograft model of HNSCC: HN2221; format: in vivo, human (in BALB/C nude mice); conditions: weekly dosing
Protocol: (§3) Example 3: Efficacy studies in patient-derived xenograft models of HNSCC. The general procedure outline in Example 1 was followed. […] Gene copy number and gene expression were assessed as described in Example 1.

[6] = test system: HNSCC patient-derived xenograft models exhibiting CCND1 amplification; assay: Efficacy studies in patient-derived xenograft models of HNSCC (Example 14); format: in vivo, human (in BALB/C nude mice); conditions: 300-350 mg/kg QW PO
Source text: Example 14: Efficacy studies in patient-derived xenograft models of HNSCC. The general procedure outline in Example 1 was followed.

[7] = test system: LU1868 primary human NSCLC tissues; assay: Patient-derived xenograft model of squamous NSCLC: LU1868; format: in vivo, human (in BALB/C nude mice); conditions: daily and Q2D dosing schedules
Protocol: (§4) Example 1: Efficacy studies in patient-derived xenograft models of squamous NSCLC. Tumor fragments (2-4 mm in diameter) from stock mice inoculated with LU1868 or LU0009 primary human NSCLC tissues were inoculated subcutaneously into BALB/C nude mice. The mice were stratified into groups when the average tumor size reached about 200 mm^3. […] Tumor volumes were measured twice weekly in two dimensions using a caliper, with volume expressed in mm^3 (mean+/−SEM) using the formula […], where a and b are the long and short diameters of the tumor, respectively.
(§5) Responses were classified as “tumor stasis” if tumors grew ≤10% during the dosing period. Many SCC patient-derived xenograft models retain comorbid properties of the original tumors from which they were derived, such as induction of cachexia and spontaneous ulceration, that negatively impact the physiology of the host animal and reduce tolerability to exogenous agents, such as therapeutic drugs. […] Dosing holidays were necessary during periods when the mouse had lost ≥10% of body weight until the weight of the mouse returned to baseline. […] Where TGI was 70-85% and no doses were missed, activity was classified as “borderline”, and any TGI levels below 70% were classified as “resistant”.

[8] = test system: LU0009 primary human NSCLC tissues; assay: Patient-derived xenograft model of squamous NSCLC: LU0009; format: in vivo, human (in BALB/C nude mice); conditions: Q2D or 2QW schedules
Protocol: as §4, §5

[9] = test system: ES0215 primary human ESCC tissues; assay: Patient-derived xenograft model of ESCC: ES0215; format: in vivo, human (in BALB/C nude mice); conditions: Q2D or QW schedules
Protocol: as §2

[10] = test system: HN0635 primary human HNSCC tissues; assay: Patient-derived xenograft model of HNSCC: HN0635; format: in vivo, human (in BALB/C nude mice); conditions: Q2D or QW schedules
Protocol: as §3

ERK2 enzyme = target: T1, ERK2 enzyme (Homo sapiens, UniProt P28482); assay: Inhibition assay of ERK (Z'-LYTE kinase assay, Ser/Thr 3 peptide, 100 μM ATP); format: biochemical; conditions: in vitro
T1 construct: purchased Life Technologies
Protocol: Example 9: Inhibition Assays of ERK. The inhibition of ERK activity by the compounds disclosed herein was determined using the Z′-LYTE kinase assay kit (Life Technologies) with a Ser/Thr 3 peptide substrate (Life Technologies) according to manufacturer's instructions. […] The IC50 values for the compounds were determined with 3-fold serial dilutions in duplicate. The compounds were first diluted in 1:3 dilutions in 100% DMSO at 100× the desired concentration, and then further diluted (1:25) in 20 mM HEPES buffer (Invitrogen) to make 4× solutions prior to adding to the enzyme solution. The final DMSO concentration in the assay was 1%. Final reaction volume was […] in 384-well plates. Kinase reactions were conducted for 1 hour followed by the assay development reaction (1 hour) in a 384 well plate format (20 μL/well).

T1 sequence (P28482 whole entry): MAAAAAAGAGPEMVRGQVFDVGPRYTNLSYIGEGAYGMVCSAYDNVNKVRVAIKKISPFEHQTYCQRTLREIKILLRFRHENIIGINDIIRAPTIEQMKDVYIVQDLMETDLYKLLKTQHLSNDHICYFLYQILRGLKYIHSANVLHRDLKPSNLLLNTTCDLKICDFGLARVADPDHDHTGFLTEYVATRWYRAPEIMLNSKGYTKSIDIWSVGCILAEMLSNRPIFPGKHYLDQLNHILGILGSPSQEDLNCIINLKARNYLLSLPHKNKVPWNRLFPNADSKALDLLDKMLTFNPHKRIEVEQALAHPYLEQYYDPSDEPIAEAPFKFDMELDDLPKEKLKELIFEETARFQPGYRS

SMILES: O=C1Nc2cc3[nH]nc(-c4ccncc4)c3cc2CN1Cc1ccccc1 [KO-947]
Tumor response (tumor volume) ([2]; all six animals, 120 mg/kg Q2D or 300 mg/kg QW, 40 days): robust tumor regression
Animals with no evidence of remaining viable tumor ([2]; sixty days after dosing was discontinued): 4 of 6
Tumor response when treatment was initiated ([3]; 120 mg/kg Q2D or 300 mg/kg QW, maintained for 25 days): regression and tumor stasis
Time tumor stasis was maintained after dosing was discontinued ([3]; after 25 days on treatment): 10 to 20 days
Decrease in size of retreated tumors ([3]; therapy restarted on day 56, subsequent 35 days): 27-66%
Tumor response (tumor volume) [4]: tumor regression was initially seen on a weekly schedule, with some regrowth late in the experiment resulting ultimately in tumor stasis
Tumor response (tumor volume) [5]: only modest inhibition of tumor growth
Models responsive to treatment [6]: Four out of six
Tumor response (tumor volume) [7]: tumor regression
Tumor response (tumor volume) [8]: only modest inhibition of tumor growth
Tumor response (tumor volume) [9]: only modest inhibition of tumor growth
Animals with tumor regression [10]: 5 of 6

SMILES: Cc1cc(-c2n[nH]c3cc4c(cc23)CN([C@@H]2CCCN(Cc3ccc(F)cc3)C2)C(=O)N4)ccn1 [Compound 151]
IC50 (ERK2 enzyme): < 500 nM

SMILES: Cc1cc(-c2n[nH]c3cc4c(cc23)CN([C@@H]2CCCN(Cc3ccc(F)cc3F)C2)C(=O)N4)ccn1 [Compound 196]
IC50 (ERK2 enzyme): < 500 nM

SMILES: Cc1cc(-c2n[nH]c3cc4c(cc23)CN(C2CCCC2)C(=O)N4)cc(C)n1 [Compound 239]
IC50 (ERK2 enzyme): < 500 nM

SMILES: Cc1cc(-c2n[nH]c3cc4c(cc23)CN([C@@H]2CCN(CC(F)(F)F)C2)C(=O)N4)cc(C)n1 [Compound 237]
IC50 (ERK2 enzyme): < 500 nM

SMILES: Cc1cc(-c2n[nH]c3cc4c(cc23)CN([C@@H]2CN(C)C[C@H]2c2ccccc2)C(=O)N4)ccn1 (racemic) [Compound 241]
IC50 (ERK2 enzyme): < 500 nM

SMILES: Cc1cc(-c2n[nH]c3cc4c(cc23)CN([C@@H]2CCCN(Cc3c(F)cccc3F)C2)C(=O)N4)ccn1 [Compound 143]
IC50 (ERK2 enzyme): < 500 nM

Next, values leading:

IC50 (A375 LacZ): 7 nM
IC50 (A375 NRAS Q61R): 77 nM
IC50 [1]: 300 nM
SMILES: CC(=O)Nc1cccc(-n2c(=O)n(C3CC3)c(=O)c3c(Nc4ccc(I)cc4F)n(C)c(=O)c(C)c32)c1 [Trametinib]

IC50 (A375 LacZ): 4200 nM
IC50 (A375 NRAS Q61R): > 10000 nM
IC50 [1]: > 10000 nM
SMILES: CCCS(=O)(=O)Nc1ccc(F)c(C(=O)c2c[nH]c3ncc(-c4ccc(Cl)cc4)cc23)c1F [Vemurafenib]

IC50 (ERK2 enzyme): < 500 nM
SMILES: C=C(c1ccccc1)c1cc2cc3c(-c4ccnc(C)c4)n[nH]c3cc2[nH]c1=O [Compound 269]

IC50 (ERK2 enzyme): < 500 nM
SMILES: Cc1cc(-c2n[nH]c3cc4c(cc23)CN([C@@H]2CN(C(C)C)C[C@H]2c2ccccc2)C(=O)N4)ccn1 (racemic) [Compound 279]

IC50 (ERK2 enzyme): < 500 nM
SMILES: Cc1cc(-c2n[nH]c3cc4c(cc23)CN([C@@H]2CCCN(Cc3sccc3F)C2)C(=O)N4)ccn1 [Compound 291]

IC50 (ERK2 enzyme): < 500 nM
SMILES: Cc1cc(-c2n[nH]c3cc4c(cc23)CN([C@@H]2CN(C)C[C@H]2c2ccccc2)C(=O)N4)cc(C)n1 (racemic) [Compound 248]
